Measured values published in patent publication US20160166577A1, “TREATMENT OF PULMONARY FIBROSIS USING AN INHIBITOR OF CBP/CATENIN” (PRISM Pharma Co., Ltd., priority 2012, published 2016).

Experiments:
[1] = test system: bleomycin-induced pulmonary fibrosis; assay: Bleomycin (BLM)-induced pulmonary fibrosis in mice; type: in vivo, C57BL/6 mice; settings: for antifibrotic effect in six-week course of BLM-induced fibrosis: Example 3, 5 mg/kg/day over weeks 4-6, FIG. 4
Method: C57BL/6 mice received subcutaneous implants of an ALZET mini-osmotic pump (Durect Corp., California) that released BLM continuously (Example 1, […]; Example 2, 120 U/kg/mouse/day) for seven days (Day 1-Day 7), to induce lung fibrosis (Lab Invest. 50:487-488, 1984; Am. J. Resp. Cell Mol. Biol. 45:489-497, 2011). Bleomycin induces epithelial injury, causing increased pulmonary inflammation from Days 1-21, peaking at about Day 10 before subsiding. Fibrosis begins at about Day 8 and gradually increases until Day 28.
BLM mice treated with test compound received a second subcutaneous ALZET mini-osmotic pump (Durect Corp., California) that released Compound A continuously. Compound A, 4-(((6S,9S,9aS)-1-(benzylcarbamoyl)-2,9-dimethyl-4,7-dioxo-8-(quinolin-8-ylmethyl)octahydro-1H-pyrazino[2,1-c][1,2,4]triazin-6-yl)methyl)phenyl dihydrogen phosphate.
Ashcroft score (J. Clin. Pathol. 41:467-470, 1988) was calculated from tissue sections of right lung stained by H&E. Left lung homogenates were analyzed for soluble collagen content using SIRCOL Collagen Assay kit (Biocolor Ltd., Carrickfergus, UK).
In Example 1, Compound A was administered 5 mg/kg/day over days 15-28.
In Example 2, Compound A was administered 1 mg/kg/day over Days 1-28 (“whole”), Days 1-14 (“early”) or Days 15-28 (“late”). […] Bleo, bleomycin treatment alone; Bleo+Cmpd A whole, bleomycin plus Compound A administered throughout 4 week period; Bleo+early 2w, bleomycin plus Compound A administered over weeks 1-2; Bleo+late 2w, bleomycin plus Compound A administered over weeks 3-4.
In Example 3, a six-week rather than four-week course of BLM-induced fibrosis was studied. In this example, either Compound A (5 mg/kg/day) or ICG-001 (5 mg/kg/day), another β-catenin inhibitor, was administered to BLM-treated mice over weeks 4-6.

[2] = test system: lung epithelial cell line LA-4; assay: TGF-β-induced epithelial-to-mesenchymal transition (EMT) in LA-4 cells; type: cell-based, murine
Method: In Example 4, the murine lung epithelial cell line, LA-4, available from the American Type Culture Collection (ATCC; Manassas, Va.), was treated with TGF-β (5 ng/ml) to induce epithelial-to-mesenchymal transition (EMT), a marker for fibrosis (J Clin Invest. 119:1420-1428, 2009). TGF-β treated cells were treated with no or with increasing concentrations (0.01 μM, 0.05 μM, 0.1 μM, or 0.5 μM) of Compound C. Compound C, (6S,9S,9aS)—N-benzyl-6-(4-hydroxybenzyl)-2,9-dimethyl-4,7-dioxo-8-(quinolin-8-ylmethyl)octahydro-1H-pyrazino[2,1-c][1,2,4]triazine-1-carboxamide.

[3] = molecular target: β-catenin/CBP interaction (Homo sapiens, UniProt Q92793); settings: cited from earlier work
[4] = test system: bleomycin-induced lung fibrosis; settings: cited from earlier work

Chain of β-catenin/CBP interaction (Q92793 whole entry): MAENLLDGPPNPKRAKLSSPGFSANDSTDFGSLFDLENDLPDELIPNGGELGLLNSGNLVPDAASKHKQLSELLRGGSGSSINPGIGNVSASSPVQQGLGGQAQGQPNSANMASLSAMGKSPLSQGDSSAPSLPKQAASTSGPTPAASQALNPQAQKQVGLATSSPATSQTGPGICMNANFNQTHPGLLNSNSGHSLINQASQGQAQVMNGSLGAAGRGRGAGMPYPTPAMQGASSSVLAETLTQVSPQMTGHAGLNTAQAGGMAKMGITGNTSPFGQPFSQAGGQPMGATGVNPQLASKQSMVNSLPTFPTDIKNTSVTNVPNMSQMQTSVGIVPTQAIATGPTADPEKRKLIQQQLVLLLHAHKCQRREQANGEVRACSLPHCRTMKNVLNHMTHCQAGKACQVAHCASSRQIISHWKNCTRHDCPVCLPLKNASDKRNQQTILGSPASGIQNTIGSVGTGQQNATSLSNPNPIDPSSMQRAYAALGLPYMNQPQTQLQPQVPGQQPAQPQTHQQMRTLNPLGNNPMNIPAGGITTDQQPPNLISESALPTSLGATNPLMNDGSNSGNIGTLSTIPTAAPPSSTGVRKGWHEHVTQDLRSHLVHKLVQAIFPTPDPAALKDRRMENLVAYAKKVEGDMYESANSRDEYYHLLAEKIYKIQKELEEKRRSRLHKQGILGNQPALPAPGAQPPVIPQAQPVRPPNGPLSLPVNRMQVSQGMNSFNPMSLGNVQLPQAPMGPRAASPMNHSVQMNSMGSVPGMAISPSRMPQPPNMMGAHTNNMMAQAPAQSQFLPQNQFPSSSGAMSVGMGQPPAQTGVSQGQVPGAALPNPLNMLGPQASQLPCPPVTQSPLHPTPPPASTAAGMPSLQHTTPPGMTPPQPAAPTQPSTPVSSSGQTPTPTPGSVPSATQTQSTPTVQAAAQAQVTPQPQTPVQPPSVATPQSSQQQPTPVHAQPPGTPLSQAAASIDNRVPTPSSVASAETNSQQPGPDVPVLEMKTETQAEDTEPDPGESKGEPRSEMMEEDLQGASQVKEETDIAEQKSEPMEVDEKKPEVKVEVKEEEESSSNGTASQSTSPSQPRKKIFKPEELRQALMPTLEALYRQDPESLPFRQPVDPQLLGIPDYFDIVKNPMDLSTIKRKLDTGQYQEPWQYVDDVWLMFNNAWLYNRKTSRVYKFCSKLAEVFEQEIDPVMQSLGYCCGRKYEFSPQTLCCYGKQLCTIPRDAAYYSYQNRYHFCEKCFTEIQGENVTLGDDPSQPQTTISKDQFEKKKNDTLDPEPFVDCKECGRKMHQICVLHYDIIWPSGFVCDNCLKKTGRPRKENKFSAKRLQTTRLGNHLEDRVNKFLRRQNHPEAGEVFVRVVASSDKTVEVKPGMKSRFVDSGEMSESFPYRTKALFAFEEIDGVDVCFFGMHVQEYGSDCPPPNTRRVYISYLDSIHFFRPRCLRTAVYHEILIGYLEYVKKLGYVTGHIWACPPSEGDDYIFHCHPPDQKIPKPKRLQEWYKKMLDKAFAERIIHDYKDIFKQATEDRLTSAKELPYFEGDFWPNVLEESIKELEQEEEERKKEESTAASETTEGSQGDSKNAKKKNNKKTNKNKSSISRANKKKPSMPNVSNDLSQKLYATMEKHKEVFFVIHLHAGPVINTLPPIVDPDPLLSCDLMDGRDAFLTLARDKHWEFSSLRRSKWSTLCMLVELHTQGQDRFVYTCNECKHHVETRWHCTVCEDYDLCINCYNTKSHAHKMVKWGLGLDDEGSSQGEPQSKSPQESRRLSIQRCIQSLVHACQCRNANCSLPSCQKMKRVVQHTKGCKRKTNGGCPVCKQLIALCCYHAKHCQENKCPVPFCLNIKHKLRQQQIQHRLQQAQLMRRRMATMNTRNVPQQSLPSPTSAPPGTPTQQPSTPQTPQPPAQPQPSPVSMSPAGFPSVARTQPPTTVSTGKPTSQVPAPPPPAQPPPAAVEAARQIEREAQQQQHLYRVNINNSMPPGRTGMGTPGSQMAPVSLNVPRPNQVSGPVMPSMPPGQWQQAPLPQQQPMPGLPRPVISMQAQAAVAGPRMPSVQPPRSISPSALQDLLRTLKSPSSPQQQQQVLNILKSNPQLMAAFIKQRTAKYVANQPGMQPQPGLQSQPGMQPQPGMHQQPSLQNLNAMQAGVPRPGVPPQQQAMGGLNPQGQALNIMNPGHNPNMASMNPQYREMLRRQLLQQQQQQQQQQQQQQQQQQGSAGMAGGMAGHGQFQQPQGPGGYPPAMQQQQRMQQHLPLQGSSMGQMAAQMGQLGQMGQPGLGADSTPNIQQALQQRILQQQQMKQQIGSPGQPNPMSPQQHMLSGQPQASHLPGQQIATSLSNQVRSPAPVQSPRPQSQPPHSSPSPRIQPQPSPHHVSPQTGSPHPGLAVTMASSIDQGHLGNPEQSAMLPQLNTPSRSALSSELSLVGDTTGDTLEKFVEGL

SMILES	lung fibrosis by histological examination ([1]; Example 1, 5 mg/kg, days 14-28, FIG. 2C)	lung fibrosis (Ashcroft score) ([1]; Example 1, 5 mg/kg/day s.c. osmotic pump, days 15-28 (days 14-28), FIG. 1A, vs bleomycin alone)	collagen deposition (SIRCOL collagen assay, left lung) ([1]; Example 1, 5 mg/kg/day, days 15-28 (days 14-28), FIG. 1B, vs bleomycin alone)	antifibrotic effect, early (inflammatory) phase treatment ([1]; Example 2, 1 mg/kg/day, Days 1-14 (early), FIG. 3, vs no test compound)	antifibrotic effect, late (fibrotic) phase treatment ([1]; Example 2, 1 mg/kg/day, Days 15-28 (late), FIG. 3)	late phase treatment compared with treatment throughout the entire period ([1]; Example 2, 1 mg/kg/day, Days 15-28 vs Days 1-28 (whole), FIG. 3)	antifibrotic effect in six-week course of BLM-induced fibrosis [1]	α-SMA expression by fluorescent microscopy ([2]; TGF-β 5 ng/ml plus compound 0.01 μM, FIG. 6)	TGF-β-induced alpha smooth muscle actin (α-SMA) formation / EMT ([2]; TGF-β 5 ng/ml, increasing concentrations 0.01, 0.05, 0.1, 0.5 μM, FIG. 5)	selectivity β-catenin/CBP vs β-catenin/p300 interaction [3]	bleomycin-induced lung fibrosis ([4]; 5 mg/kg per day, mice)	β-catenin signaling ([4]; 5 mg/kg per day, mice)	fibrosis, administration concurrent with bleomycin ([4]; concurrent administration)	established fibrosis, late administration ([4]; late administration)	survival, late administration ([4]; late administration)
C[C@H]1[C@H]2N(C(=O)CN(C)N2C(=O)NCc2ccccc2)[C@@H](Cc2ccc(OP(=O)(O)O)cc2)C(=O)N1Cc1cccc2cccnc12 [Compound A, 4-(((6S,9S,9aS)-1-(benzylcarbamoyl)-2,9-dimethyl-4,7-dioxo-8-(quinolin-8-ylmethyl)octahydro-1H-pyrazino[2,1-c][1,2,4]triazin-6-yl)methyl)phenyl dihydrogen phosphate]	reduces lung fibrosis	reduces lung fibrosis	reduced	not significantly beneficial	significantly reduced lung fibrosis	equal to, or even superior to	has an antifibrotic effect	–	–	–	–	–	–	–	–
C[C@H]1[C@H]2N(C(=O)CN(C)N2C(=O)NCc2ccccc2)[C@@H](Cc2ccc(O)cc2)C(=O)N1Cc1cccc2cccnc12 [Compound C, (6S,9S,9aS)—N-benzyl-6-(4-hydroxybenzyl)-2,9-dimethyl-4,7-dioxo-8-(quinolin-8-ylmethyl)octahydro-1H-pyrazino[2,1-c][1,2,4]triazine-1-carboxamide]	–	–	–	–	–	–	–	decreased alpha smooth muscle actin (α-SMA) expression	inhibit TGF-β-induced alpha smooth muscle actin (α-SMA) formation	–	–	–	–	–	–
O=C1[C@H](Cc2ccc(O)cc2)N2C(=O)CCN(C(=O)NCc3ccccc3)[C@H]2CN1Cc1cccc2ccccc12 [ICG-001]	–	–	–	–	–	–	antifibrotic effect, unlike β-catenin inhibitor ICG-001	–	–	selectively blocks the β-catenin/CBP interaction without interfering with the β-catenin/p300 interaction	attenuates bleomycin-induced lung fibrosis	significantly inhibits β-catenin signaling	prevents fibrosis	reverse established fibrosis	significantly improve survival
